This note sets out measurements from ChEMBL document CHEMBL1157539, “Thousands of chemical starting points for antimalarial lead identification” (Nature, 2010).

For this assay, the system named is Plasmodium falciparum. In words: GSK_TCMDC: Inhibition of Plasmodium falciparum 3D7 in whole erythrocytes, using parasite LDH activity as an index of growth. It counts as functional, organism-based. Particulars: Plasmodium falciparum, 3D7.

As to `O=[N+]([O-])c1cc(/C=N/Nc2nc3nonc3nc2Nc2ccc(F)cc2)c(Cl)cc1Cl`, the XC50 is 759 nM. Regarding `CCNc1cc(C(=O)NC(Cc2ccccc2)C(O)CNC(C)(C)CCCC(C)C)c(F)c(N2CCCS2(=O)=O)c1` (centres undefined), the XC50 was found to be 197 nM. With `O=c1cc(NCCCN(Cc2cc3c(Cl)cc(Cl)cc3[nH]2)Cc2cc3c(Cl)cc(Cl)cc3[nH]2)[nH]c2ccccc12`, the XC50 stood at 121 nM. The same measure for `C#CCCC(=O)Nc1cccc(-c2cccc(-c3nc4cc(C(F)(F)F)ccc4[nH]3)c2)c1`: 805 nM; for `COc1ccc(NC(=O)[C@H](Cc2ccccc2)Nc2cc(C)nc(NCCc3ccccc3)n2)cc1`: 1240 nM. The same measure for `CC(=O)Nc1ccc(CN2CCC(NC(=O)c3cc(-c4ccc(N(C)C)cc4)cs3)C2)cc1` (centres undefined): 1170 nM; for `CN1CCC(N(Cc2ccc(-c3ccc(C(F)(F)F)cc3)nc2)C(=O)Cn2c(CCc3cccc(F)c3F)cc(=O)c3ccccc32)CC1`: 1100 nM. Regarding `CCN1CCCC(CNC(=O)/C(=C/C=C/c2cc3cc(Cl)c(Cl)cc3[nH]2)OC)C1` (centres undefined), the XC50 is 888 nM.

Turning to `Cc1cc(CN2CC[C@H](NC(=O)c3ccc(Cl)c(Cl)c3)C2)ccc1OCCN1CCCC1`, the XC50 worked out at 1160 nM. In turn, `COc1ccc2c(O)c(Br)c(C)nc2c1` displayed an XC50 of 192 nM. For `CC(C)c1ccc2c(c1)C(=O)c1ccc(C(=O)O)cc1S2(=O)=O`, the XC50 worked out at 472 nM. The same measure for `CC(=O)NCCCCC1NC2(C(=O)N(Cc3ccc(C(C)(C)C)cc3)c3ccccc32)C2C(=O)N(C3CCCCC3)C(=O)C12` (centres undefined): 788 nM; for `CCNC(=O)c1ccc2c(c1)c(C)c(C)n2Cc1ccc(F)cc1`: 767 nM. As for `COc1ccc(/C=C/C(=O)NCCCCCN2CCC(c3c[nH]c4ccccc34)CC2)cc1O`, the XC50 was determined as 957 nM. The molecule `Cc1cccc(C)c1OC(=O)CSc1nnc(-c2ccccc2O)o1` returned an XC50 of 884 nM. The same measure for `O=C(CCc1c[nH]cn1)Nc1cccc(-c2cccc(-c3nc4cc(C(F)(F)F)ccc4[nH]3)c2)c1`: 132 nM. The molecule `COc1c(C2CCN(CCCCNC(=O)c3ccc(-c4ccc(C#N)cc4)nc3)CC2)ccc2c1CCCC2` showed an XC50 of 530 nM. Take `CSC1=NC(C)(C)CC2(CC(c3cccc(C)c3)c3cc(Cl)c(O)cc3O2)N1` (centres undefined): the XC50 was 879 nM. For `O=C(NC1CCC(CN2CCC(c3c[nH]c4ccccc34)CC2)CC1)c1[nH]c(=O)[nH]c(=O)c1F` (centres undefined), the XC50 came out at 796 nM.

Consider `O=C(NCc1cccc2ccccc12)C(c1cc2ccccc2o1)N1CCN(C(c2ccccc2)c2ccccc2)CC1` (centres undefined), for which the XC50 was 667 nM. Take `CCN(CCCN1CCCCC1)c1nc(C)cc(Nc2ccc(Cl)cc2)n1`: the XC50 was found to be 837 nM. As to `O=[N+]([O-])c1ccc(C(O)P(=O)(c2ccccc2)c2ccccc2)cc1` (centres undefined), the XC50 was determined as 341 nM.

For `Cc1ccc(OCCCCONC(=O)c2ccccc2)cc1`, the XC50 is 145 nM.

Consider `CCCCN(Cc1cc(Cl)c(OC)c(OC)c1)c1ccc(C(O)(C(F)(F)F)C(F)(F)F)cc1`, for which the XC50 is 194 nM.

Take `O=C(NC1CCN(Cc2ccccc2)CC1)c1ccc(-c2nc3cc(Cl)c(Cl)cc3[nH]2)c(F)c1`: the XC50 was 736 nM.

Regarding `CCOc1ccc2[nH]c(C)cc(=NN=Cc3ccccc3F)c2c1`, the XC50 stood at 738 nM.

For the molecule `O=C(Nc1cccc(-c2ccc(-c3nc4cc(F)ccc4[nH]3)cc2)c1)c1ccoc1`, the XC50 stood at 962 nM. In turn, `CNC(=O)COC(=O)c1c2c(nc3ccccc13)C(=Cc1ccc3c(c1)OCO3)CCC2` returned an XC50 of 643 nM. On to `COc1ccc2nccc([C@@H](O)CN3CCC(NCc4cc5ccc(C#N)cc5[nH]4)CC3)c2c1`, for which the XC50 worked out at 95 nM. For the molecule `CCCCCCC(C)c1cc(O)c2c(c1)OC(=O)CC2(CC)c1ccccn1` (centres undefined), the XC50 came to 335 nM. `COc1cccc(C(=O)NC(c2ccccc2OC)c2cc(Cl)c3cccnc3c2O)c1` (centres undefined): the XC50 is 1190 nM.

With `Cc1cc(O)cc2c(C3CCN(CC4CCN(C(=O)/C=C/c5ccc(Cl)c(Cl)c5)CC4)CC3)c[nH]c12`, the XC50 is 1090 nM. The molecule `N=c1sc2ccccc2n1CC(O)c1ccc(Cl)c(Cl)c1` (centres undefined) returned an XC50 of 800 nM. `[O-][S+]1c2ccccc2Sc2ccccc21`: the XC50 was 168 nM.
